Read-outs that look alike come from different tables or passages of the source.
How the values were obtained:
[1] = target: bovine striatal adenosine receptors; assay: Displacement of [3H]-NECA (non-selective P1 ligand) binding to striatal membranes
[2] = system: mouse striatal and frontal cortex neurochemistry; details: for dopamine or 5-HT neurochemistry and transmitter metabolites: (+)- versus (-)-enantiomer
[3] = human, in vivo; cited from earlier work
[4] = system: haloperidol-induced catalepsy; assay: Haloperidol-induced catalepsy in the rat; details: 0.1-10 mg/kg p.o. 6 h prior to testing; haloperidol 0.2 mg/kg i.p.
Procedure: Evaluation of Potential Anti-Parkinsonian Activity in vivo Haloperidol-induced Catalepsy in the Rat
This method assessed the ability of an animal to respond to an externally imposed posture after receiving the neuroleptic dopamine D2 antagonist haloperidol.
Haloperidol (0.2 mg/kg) was obtained in injectable form and diluted to a final concentration using physiological saline. 3,7-Dimethyl-1-propargylxanthine(DMPX) (0, 3 mg/kg) was dissolved in saline. All drugs were administered in a volume of 2 ml/kg.
The test procedure was as follows:
Step I The rat was taken out of the home cage and placed on a table.
Step II The front paws of the rat were placed alternately on a 3 cm high wooden block.
Step III The front paws of the rat were placed alternately on a 9 cm high wooden block. […] Thus for any animal the highest score obtainable was 3.5 (cut-off score) reflecting total catalepsy.
Data from the experiment were analysed using Kruskal-Wallis ANOVA followed by Mann-Whitney U test when appropriate, and are expressed as means +/- standard error of the mean *p<0.05 versus vehicle control.

[5] = target: human recombinant (HEK-293) adenosine A3 receptor; details: read-out: Ki adenosine A3; cited from earlier work
[6] = target: human recombinant (HEK-293) adenosine A2A receptor; details: read-out: Ki adenosine A2A, cited from earlier work
[7] = system: catalepsy; details: cited from earlier work
[8] = target: adenosine A1 receptor; details: read-out: Ki adenosine A1, cited from earlier work
[9] = system: haloperidol-induced catalepsy; details: literature; cited from earlier work
[10] = system: Parkinson's disease; details: 150 mg/day slow release oral, up to 12 weeks, cited from earlier work
[11] = 150 mg/day slow release oral, after one week; 10080 min; cited from earlier work

With `O[C@H](c1cc(C(F)(F)F)nc2c(C(F)(F)F)cccc12)[C@@H]1CCCCN1` [(+) enantiomer, (+)-(11R,2'S)-α-2-piperidinyl-2,8-bis(trifluoromethyl)-4-quinolinemethanol] the Ki [1] was 38000 nM, the frontal cortex acetylcholine ([2]; 100 mg/kg p.o., 24 h) was “unaffected” and the “dopamine or 5-HT neurochemistry and transmitter metabolites” value ([2]; 100 mg/kg p.o., 24 h) was “No significant difference”.
For `O[C@@H](c1cc(C(F)(F)F)nc2c(C(F)(F)F)cccc12)[C@H]1CCCCN1` [(-) enantiomer, (-)-(11S,2'R)-α-2-piperidinyl-2,8-bis(trifluoromethyl)-4-quinolinemethanol], the Ki [1] is listed as 83 nM, the half life [3] is listed as 14.4 days and the “blocking of haloperidol-induced catalepsy” value [4] is listed as “capable of blocking haloperidol-induced catalepsy”. For the same compound, the frontal cortex acetylcholine ([2]; 100 mg/kg p.o., 24 h) was “unaffected”, the “striatal acetylcholine content, (-)- versus (+)-enantiomer” value ([2]; 100 mg/kg p.o., 24 h) was “significantly higher” and the “striatal acetylcholine content, post-hoc Duncan's test between enantiomers” value ([2]; 100 mg/kg p.o., 24 h) was “between the (+)-enantiomer and the (-)-enantiomer (p<0.01)”. For the same compound, the “striatal acetylcholine content, post-hoc Duncan's test versus vehicle” value ([2]; 100 mg/kg p.o., 24 h) was “significant difference between vehicle and the (-)-enantiomer (p<0.05)”, the “dopamine or 5-HT neurochemistry and transmitter metabolites” value ([2]; 100 mg/kg p.o., 24 h) was “No significant difference” and the “acetylcholine release in striatum (suggested by FIG. 6)” value ([2]; inferred from tissue acetylcholine content) was “inhibits acetylcholine release in striatum”.
For `OC[C@H]1O[C@@H](n2cnc3c(NC4CCCCC4)ncnc32)[C@H](O)[C@@H]1O` [CHA], the Ki [5] is given as 7700 nM and the Ki [6] is given as 510 nM.
In the case of `CCCn1c(=O)c2c(nc(/C=C/c3ccc(OC)c(OC)c3)n2C)n(CCC)c1=O` [KF17837, (E)-8-(3,4-dimethoxystyryl)-1,3-dipropyl-7-methylxanthine], the “anticataleptic effects of a subthreshold dose of L-DOPA plus benserazide” value ([7]; combination) is listed as “potentiated”, the “catalepsy induced by haloperidol and reserpine” value ([7]; in vivo) is listed as “reduced” and the “cataleptic responses induced by intracerebroventricular CGS 21680” value ([7]; oral administration) is listed as “significantly ameliorated”. The Ki ([8]; comparative literature data) was 390 nM and the Ki ([6]; comparative literature data) was 8 nM.
In the case of `CCn1c(=O)c2c(nc(/C=C/c3ccc(OC)c(OC)c3)n2C)n(CC)c1=O` [KW-6002], the Ki [8] is listed as 580 nM and the Ki [6] is listed as 13 nM.
In the case of `N[C@@H](Cc1ccc(O)c(O)c1)C(=O)O` [L-DOPA], the “blocking of haloperidol-induced catalepsy” value [9] is listed as “block haloperidol-induced catalepsy”.
Work on `CNC(=O)[C@H]1O[C@@H](n2cnc3c(N)ncnc32)[C@H](O)[C@@H]1O` [MECA, 5'-N-methylcarboxamidoadenosine] yielded a Ki [1] of 58 nM.
For `Cn1c(=O)c2[nH]cnc2n(C)c1=O` [THEOPHYLLINE, theophylline], the “mean objective disability scores” value ([10]; 15 patients) is listed as “significant improvements”, the “patients reporting moderate or marked subjective improvement” value ([10]; of 15 patients) is listed as 11 and the serum theophylline levels [11] is listed as 4.44 mg/L.
